# Assay results from patent US20260022143A1, “Cyclic Peptide Inhibitors of IL-23” (JANSSEN PHARMACEUTICA NV, priority 2022, published 2026).
# Positions of bridges follow the written chain, without caps; N, C: chain ends. Non-standard residues stand in square brackets, D forms with d. Residues, ends and D or L forms follow the SMILES beside them. *: point of attachment. Me3N+(CH2)2O(CH2)2O(CH2)2CO = C[N+](C)(C)CCOCCOCCC(=O)*; Trp(7-Me) = Cc1cccc2c(C[C@H](N)C(=O)O)c[nH]c12; 2Nal = N[C@@H](Cc1ccc2ccccc2c1)C(=O)O; 3Pal = N[C@@H](Cc1cccnc1)C(=O)O; Lys(Me) = CNCCCC[C@H](N)C(=O)O; Pen = CC(C)(S)[C@H](N)C(=O)O; Thp = NC1(C(=O)O)CCOCC1; X3 = C[N+](C)(C)CCCCC*; Sar = CNCC(=O)O
# Experiments:
# IL-23R = biological target: T1, IL-23R (Homo sapiens, UniProt Q5VWK5); test: IL23R Reporter Assay; format: cell-based; details: HEK293 cells containing IL-23R, IL-12RP1 and STAT-inducible firefly luciferase reporter; 10 ng/mL IL-23 (EC90); 5 h at 37° C.; read-out: IL23R Reporter Assay
# T1 construct: host or cells: HEK293
# T1 sequence (Q5VWK5 24-629): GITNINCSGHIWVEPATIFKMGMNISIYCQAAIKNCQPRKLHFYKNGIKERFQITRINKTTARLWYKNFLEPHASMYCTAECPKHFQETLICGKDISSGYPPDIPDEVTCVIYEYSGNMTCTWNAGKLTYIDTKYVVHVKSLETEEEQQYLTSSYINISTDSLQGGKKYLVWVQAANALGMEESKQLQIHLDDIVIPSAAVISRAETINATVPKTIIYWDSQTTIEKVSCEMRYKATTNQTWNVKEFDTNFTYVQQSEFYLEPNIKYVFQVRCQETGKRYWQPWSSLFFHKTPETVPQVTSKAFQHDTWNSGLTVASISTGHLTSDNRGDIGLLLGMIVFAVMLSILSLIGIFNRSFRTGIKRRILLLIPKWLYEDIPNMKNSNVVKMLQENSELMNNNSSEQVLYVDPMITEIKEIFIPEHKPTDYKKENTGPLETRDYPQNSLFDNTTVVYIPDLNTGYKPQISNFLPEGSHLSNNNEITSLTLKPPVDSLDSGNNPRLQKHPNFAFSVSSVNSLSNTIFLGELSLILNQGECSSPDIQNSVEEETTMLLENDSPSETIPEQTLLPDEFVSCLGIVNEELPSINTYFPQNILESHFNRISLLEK
# [1] = Exposed Polar Surface Area (EPSA); format: physicochemical; details: SFC on Chirex 3014 column; sample 1 mM DMSO stock; read-out: EPSA
# Procedure, shortened: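 EPSA, in Å^2, is read from SFC retention time through a linear relationship established with eight calibration standards. Separation uses a Chirex 3014 stationary phase, 35 °C, 14 MPa back pressure, and a 5–60% methanol/ammonium formate modifier gradient in CO2.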
IC50 (IL-23R) [nM],EPSA [1] [A^2],SMILES
6,161,"CC(=O)N(C)CCCC[C@@H]1NC(=O)[C@H](Cc2c[nH]c3c(C)cccc23)NC(=O)[C@H]([C@@H](C)O)NC(=O)[C@H](C)NC(=O)[C@@H](NC(=O)CCOCCOCC[N+](C)(C)C)C(C)(C)SSC(C)(C)[C@@H](C(=O)N[C@@H](Cc2ccc(OCCCCC[N+](C)(C)C)cc2)C(=O)N[C@@H](Cc2ccc3ccccc3c2)C(=O)NC2(C(=O)N[C@@H](CCCCN(C)C(C)=O)C(=O)N[C@@H](CC(N)=O)C(=O)N[C@@H](Cc3cccnc3)C(=O)N(C)CC(=O)N(C)C)CCOCC2)NC1=O [compound 496, cPEG3aCO-Pen(3)-a-T-7MeW-K(NMeAc)-Pen(3)-TMAPF-2Nal-THP-K(NMeAc)-N-3Pya-Sar-CON(Me)2] ({Me3N+(CH2)2O(CH2)2O(CH2)2CO}-[Pen]AT[Trp(7-Me)][Lys(Me)](Ac)[Pen]Y(X3)[2Nal][Thp][Lys(Me)](Ac)N[3Pal][Sar]-NMe2; disulfide 1-6)"
80,162,"CC(=O)N(C)CCCC[C@@H]1NC(=O)[C@H](Cc2c[nH]c3c(C)cccc23)NC(=O)[C@H]([C@@H](C)O)NC(=O)[C@H](CC(=O)N(C)C)NC(=O)[C@@H](NC(=O)CCOCCOCC[N+](C)(C)C)C(C)(C)SSC(C)(C)[C@@H](C(=O)N[C@@H](Cc2ccc(OCCCCC[N+](C)(C)C)cc2)C(=O)N[C@@H](Cc2c[nH]c3ccccc23)C(=O)NC2(C(=O)N[C@@H](CCCCN(C)C(C)=O)C(=O)N[C@@H](CC(N)=O)C(=O)N[C@@H](Cc3cccnc3)C(=O)N(C)CC(=O)N(C)C)CCOCC2)NC1=O [compound 497, cPEG3aCO-Pen(3)-N(N(Me)2)-T-7MeW-K(NMeAc)-Pen(3)-TMApF-W-THP-K(NMeAc)-N-3Pya-Sar-CON(Me)2] ({Me3N+(CH2)2O(CH2)2O(CH2)2CO}-[Pen]D(NMe2)T[Trp(7-Me)][Lys(Me)](Ac)[Pen]Y(X3)W[Thp][Lys(Me)](Ac)N[3Pal][Sar]-NMe2; disulfide 1-6)"
27,162,"CC(=O)N(C)CCCC[C@@H]1NC(=O)[C@H](Cc2c[nH]c3c(C)cccc23)NC(=O)[C@H]([C@@H](C)O)NC(=O)[C@H](CC(=O)N(C)C)NC(=O)[C@@H](NC(=O)CCOCCOCC[N+](C)(C)C)C(C)(C)SSC(C)(C)[C@@H](C(=O)N[C@@H](Cc2ccc(OCCCCC[N+](C)(C)C)cc2)C(=O)N[C@@H](Cc2ccccc2)C(=O)NC2(C(=O)N[C@@H](CCCCN(C)C(C)=O)C(=O)N[C@@H](CC(N)=O)C(=O)N[C@@H](Cc3cccnc3)C(=O)N(C)CC(=O)N(C)C)CCOCC2)NC1=O [compound 498, cPEG3aCO-Pen(3)-N(N(Me)2)-T-7MeW-K(NMeAc)-Pen(3)-TMApF-F-THP-K(NMeAc)-N-3Pya-Sar-CON(Me)2] ({Me3N+(CH2)2O(CH2)2O(CH2)2CO}-[Pen]D(NMe2)T[Trp(7-Me)][Lys(Me)](Ac)[Pen]Y(X3)F[Thp][Lys(Me)](Ac)N[3Pal][Sar]-NMe2; disulfide 1-6)"
> 1630,133,"CC(=O)N(C)CCCC[C@@H]1NC(=O)[C@H](Cc2c[nH]c3c(C)cccc23)NC(=O)[C@H]([C@@H](C)O)NC(=O)[C@H](CC(=O)N(C)C)NC(=O)[C@@H](NC(=O)CCOCCOCC[N+](C)(C)C)C(C)(C)SSC(C)(C)[C@@H](C(=O)N[C@@H](Cc2ccc(OCCCCC[N+](C)(C)C)cc2)C(=O)N[C@@H](CC(C)C)C(=O)NC2(C(=O)N[C@@H](CCCCN(C)C(C)=O)C(=O)N[C@@H](CC(N)=O)C(=O)N[C@@H](Cc3cccnc3)C(=O)N(C)CC(=O)N(C)C)CCOCC2)NC1=O [compound 499, cPEG3aCO-Pen(3)-N(N(Me)2)-T-7MeW-K(NMeAc)-Pen(3)-TMApF-L-THP-K(NMeAc)-N-3Pya-Sar-CON(Me)2] ({Me3N+(CH2)2O(CH2)2O(CH2)2CO}-[Pen]D(NMe2)T[Trp(7-Me)][Lys(Me)](Ac)[Pen]Y(X3)L[Thp][Lys(Me)](Ac)N[3Pal][Sar]-NMe2; disulfide 1-6)"
> 1190,159,"CC(=O)N(C)CCCC[C@@H]1NC(=O)[C@H](Cc2c[nH]c3c(C)cccc23)NC(=O)[C@H]([C@@H](C)O)NC(=O)[C@H](CC(=O)N(C)C)NC(=O)[C@@H](NC(=O)CCOCCOCC[N+](C)(C)C)C(C)(C)SSC(C)(C)[C@@H](C(=O)N[C@@H](Cc2ccc(OCCCCC[N+](C)(C)C)cc2)C(=O)N[C@@H](C)C(=O)NC2(C(=O)N[C@@H](CCCCN(C)C(C)=O)C(=O)N[C@@H](CC(N)=O)C(=O)N[C@@H](Cc3cccnc3)C(=O)N(C)CC(=O)N(C)C)CCOCC2)NC1=O [compound 500, cPEG3aCO-Pen(3)-N(N(Me)2)-T-7MeW-K(NMeAc)-Pen(3)-TMApF-A-THP-K(NMeAc)-N-3Pya-Sar-CON(Me)2] ({Me3N+(CH2)2O(CH2)2O(CH2)2CO}-[Pen]D(NMe2)T[Trp(7-Me)][Lys(Me)](Ac)[Pen]Y(X3)A[Thp][Lys(Me)](Ac)N[3Pal][Sar]-NMe2; disulfide 1-6)"
4.6,175,"CC(=O)NCCCC[C@@H]1NC(=O)[C@H](Cc2c[nH]c3c(-c4cccc(NC(C)=O)c4)cccc23)NC(=O)[C@H]([C@@H](C)O)NC(=O)[C@H](CC(N)=O)NC(=O)[C@@H](NC(=O)CCOCCOCC[N+](C)(C)C)C(C)(C)SSC(C)(C)[C@@H](C(=O)N[C@@H](Cc2ccc(OCCCCC[N+](C)(C)C)cc2)C(=O)N[C@@H](Cc2ccc3ccccc3c2)C(=O)NC2(C(=O)N[C@@H](CCCCN(C)C(C)=O)C(=O)N[C@@H](CC(N)=O)C(=O)N[C@@H](Cc3cncc(C)c3)C(=O)N(C)CC(N)=O)CCOCC2)NC1=O [compound 501, cPEG3aCO-Pen(3)-N-T-7(3NAcPh)W-K(Ac)-Pen(3)-TMAPF-2Nal-THP-K(NMeAc)-N-5MePyridinAla-Sar-CONH2]"
3.8,169,"CC(=O)NCCCC[C@@H]1NC(=O)[C@H](Cc2c[nH]c3c(-c4cccc(NC(C)=O)c4)cccc23)NC(=O)[C@H]([C@@H](C)O)NC(=O)[C@H](CC(N)=O)NC(=O)[C@@H](NC(C)=O)C(C)(C)SSC(C)(C)[C@@H](C(=O)N[C@@H](Cc2ccc(OCCCCC[N+](C)(C)C)cc2)C(=O)N[C@@H](Cc2ccc3ccccc3c2)C(=O)NC2(C(=O)N[C@@H](CCCCN(C)C(C)=O)C(=O)N[C@@H](CC(N)=O)C(=O)N[C@@H](Cc3cncc(C)c3)C(=O)N(C)CC(N)=O)CCOCC2)NC1=O [compound 502, MeCO-Pen(3)-N-T-7(3NAcPh)W-K(Ac)-Pen(3)-TMAPF-2Nal-THP-K(NMeAc)-N-5MePyridinAla-Sar-CONH2]"
8.4,169,"CC(=O)NCCCC[C@@H]1NC(=O)[C@H](Cc2c[nH]c3c(-c4cccc(NC(C)=O)c4)cccc23)NC(=O)[C@H]([C@@H](C)O)NC(=O)[C@H](CC(N)=O)NC(=O)[C@@H](NC(C)=O)C(C)(C)SSC(C)(C)[C@@H](C(=O)N[C@@H](Cc2ccc(OCCCCC[N+](C)(C)C)cc2)C(=O)N[C@@H](Cc2ccc3ccccc3c2)C(=O)NC2(C(=O)N[C@@H](CCCCNC(C)=O)C(=O)N[C@@H](CC(N)=O)C(=O)N[C@@H](Cc3cncc(C)c3)C(=O)N(C)CC(N)=O)CCOCC2)NC1=O [compound 503, MeCO-Pen(3)-N-T-7(3NAcPh)W-K(Ac)-Pen(3)-TMAPF-2Nal-THP-K(Ac)-N-5MePyridinAla-Sar-CONH2]"
8.6,178,"CC(=O)NCCCC[C@@H]1NC(=O)[C@H](Cc2c[nH]c3c(-c4cccc(NC(C)=O)c4)cccc23)NC(=O)[C@H]([C@@H](C)O)NC(=O)[C@H](CC(N)=O)NC(=O)[C@@H](NC(C)=O)C(C)(C)SSC(C)(C)[C@@H](C(=O)N[C@@H](Cc2ccc(OCCCCC[N+](C)(C)C)cc2)C(=O)N[C@@H](Cc2ccc3ccccc3c2)C(=O)NC2(C(=O)N[C@@H](CCC(=O)O)C(=O)N[C@@H](CC(N)=O)C(=O)N[C@@H](Cc3cncc(C)c3)C(=O)N(C)CC(N)=O)CCOCC2)NC1=O [compound 504, MeCO-Pen(3)-N-T-7(3NAcPh)W-K(Ac)-Pen(3)-TMAPF-2Nal-THP-E-N-5MePyridinAla-Sar-CONH2]"
4.1,191,"CC(=O)NCCCC[C@@H]1NC(=O)[C@H](Cc2c[nH]c3c(C)cccc23)NC(=O)[C@H]([C@@H](C)O)NC(=O)[C@H](CC(N)=O)NC(=O)[C@@H](NC(=O)CCOCCOCC[N+](C)(C)C)C(C)(C)SSC(C)(C)[C@@H](C(=O)N[C@@H](Cc2ccc(OCCN)cc2)C(=O)N[C@@H](Cc2ccc3ccccc3c2)C(=O)NC2(C(=O)N[C@@H](CCC(=O)O)C(=O)N[C@@H](CC(N)=O)C(=O)N[C@@H](Cc3cncc(C)c3)C(=O)N(C)CC(N)=O)CCOCC2)NC1=O [compound 506, cPEG3aCO-Pen(3)-N-T-7MeW-K(Ac)-Pen(3)-AEF-2Nal-THP-E-N-5MePyridinAla-Sar-CONH2]"
